This note sets out measurements from ChEMBL document CHEMBL1125977, “2-aryl-1,2-dihydro-6,7-dimethoxyquinazoline-3-oxides with positive inotropic activity” (1991).

The test system of experiment [1] is Canis familiaris. Briefly: Inotropic activity of compound was evaluated as % increase in cardiac force at a dose of 1.87 (mg/Kg) in anesthetized dog. The class given is functional, Canis lupus familiaris, Heart.
Experiment [2] relates to Canis familiaris. Briefly: Inotropic activity of compound was evaluated as % change in heart rate at a dose of 1.87 (mg/Kg) in anesthetized dog. The class given is functional, Canis lupus familiaris.
The test system of experiment [3] is Canis familiaris. Briefly: Inotropic activity of compound was evaluated as % change in mean arterial blood pressure at a dose of 1.87 (mg/Kg) in anesthetized dog. The experiment is classed as functional, Canis lupus familiaris.
Experiment [4] concerns Canis familiaris. Briefly: Inotropic activity of compound was evaluated as % increase in cardiac force at a dose of 10 (mg/Kg, intraduodenally) in anesthetized dog. The class given is functional, Canis lupus familiaris, Heart.
Experiment [5] concerns Canis familiaris. Briefly: Inotropic activity of compound was evaluated as % increase in cardiac force at a dose of 8.75 (mg/Kg) in anesthetized dog. The class given is functional, Canis lupus familiaris, Heart.
The subject of experiment [6] is Canis familiaris. Briefly: Inotropic activity of compound was evaluated as % change in heart rate at a dose of 10 (mg/Kg, intraduodenally) in anesthetized dog. The experiment is classed as functional, Canis lupus familiaris.
Experiment [7] concerns Canis familiaris. Briefly: Inotropic activity of compound was evaluated as % change in heart rate at a dose of 8.75 (mg/Kg) in anesthetized dog. The experiment is classed as functional, Canis lupus familiaris.
Experiment [8] relates to Canis familiaris. Briefly: Inotropic activity of compound was evaluated as % change in mean arterial blood pressure at a dose of 10 (mg/Kg, intraduodenally) in anesthetized dog. The experiment is classed as functional, Canis lupus familiaris.
Experiment [9] relates to Canis familiaris. Briefly: Inotropic activity of compound was evaluated as % change in mean arterial blood pressure at a dose of 8.75 (mg/Kg) in anesthetized dog. The class given is functional, Canis lupus familiaris.
Experiment [10] concerns Canis familiaris. Briefly: Inotropic activity of compound was evaluated as % increase in cardiac force at a dose of 8.28 (mg/Kg) in anesthetized dog. The class given is functional, Canis lupus familiaris, Heart.
Experiment [11] concerns Canis familiaris. Briefly: Inotropic activity of compound was evaluated as % change in heart rate at a dose of 8.28 (mg/Kg) in anesthetized dog. The class given is functional, Canis lupus familiaris.
The test system of experiment [12] is Canis familiaris. Briefly: Inotropic activity of compound was evaluated as % change in mean arterial blood pressure at a dose of 8.28 (mg/Kg) in anesthetized dog. The class given is functional, Canis lupus familiaris.

For `COc1ccc(C2Nc3cc(OC)c(OC)cc3C(C)=[N+]2[O-])cc1` (stereo not given), in [1], the CF was 29%. The HR in [2] was 8%. Moreover, the MABP in [3] is on record as -6%.

`COc1cc2c(cc1OC)C(C)=[N+]([O-])C(c1ccccc1)N2` (stereo not given): the CF came to 42% in [1], 157% in experiment [4] and 137% in [5]. Further, the HR in experiment [2] amounted to 12%; in [6] it was 37%; in [7] it was 47%. The MABP in experiment [3] is given as -3%; in experiment [8], -15%; in experiment [9], -28%.

Consider `COc1cc2c(cc1OC)C(C)=[N+]([O-])C(c1ccccn1)N2` (stereo not given), for which, in experiment [5], the CF is reported as 45%. Further, in [7], the HR came to 16%. Besides, the MABP in experiment [9] is recorded as 0%.

With `COc1cc2c(cc1OC)C(C)=[N+]([O-])C(c1ccc(C)cc1)N2` (stereo not given), the CF in experiment [1] turned out to be 45%. For the same molecule, the HR in experiment [2] amounted to 10%. For the same molecule, the MABP in [3] is listed as -6%.

Consider `COc1cc2c(cc1OC)C(C)=[N+]([O-])C(c1ccco1)N2` (stereo not given), for which the CF in [5] is on record as 123%. In experiment [7], the HR is recorded as 20%. The MABP in experiment [9] is reported as -14%.

In the case of `COc1cc2c(cc1OC)C(C)=[N+]([O-])C(c1cc3c(cc1[N+](=O)[O-])OCO3)N2` (stereo not given), the CF in [5] is on record as 17%. Further, in experiment [7], the HR is recorded as 4%. In addition, the MABP in experiment [9] stood at 0%.

Take `COc1cc2nc(-c3ccccc3)nc(C)c2cc1OC`: the CF in experiment [1] is listed as -14%. In addition, the HR in [2] is -4%. In addition, in [3], the MABP is given as -20%.

Take `COc1cc2nc(-c3ccccc3)[n+]([O-])c(C)c2cc1OC`: the CF in experiment [5] is 29%. Further, the HR in experiment [7] was 5%. Further, the MABP in experiment [9] amounted to 0%.

Turning to `COc1cc2c(cc1OC)C(C)=[N+]([O-])C(c1ccncc1)N2` (stereo not given), in experiment [5], the CF is 29%. Further, the HR in [7] is given as 8%. The MABP in [9] worked out at 0%.

With `COc1cc2c(cc1OC)C(C)=[N+]([O-])C(c1ccc3c(c1)OCO3)N2` (stereo not given), the CF in experiment [5] stood at 124%. Moreover, the HR in [7] came out at 39%. Besides, the MABP in [9] was -38%.

For `COc1cc2c(cc1OC)C(C)=[N+]([O-])C(c1cccc3c1OCO3)N2` (stereo not given), the CF in [10] is 45%. For the same molecule, in [11], the HR turned out to be 13%. For the same molecule, the MABP in experiment [12] worked out at 10%.

With `COc1cc2c(cc1OC)C(C)=[N+]([O-])C(c1cccs1)N2` (stereo not given), the CF in [5] is 75%. For the same molecule, in experiment [7], the HR is on record as 21%. Further, the MABP in [9] was -31%.

Take `COc1cc2c(cc1OC)C(C)=[N+]([O-])C(c1c(F)c(F)c(F)c(F)c1F)N2` (stereo not given): the CF in [1] is on record as 33%. The HR in [2] worked out at 8%. Besides, the MABP in experiment [3] turned out to be 2%.
